The values that follow come from ChEMBL document CHEMBL1142789, “Carbonic anhydrase inhibitors: design of thioureido sulfonamides with potent isozyme II and XII inhibitory properties and intraocular pressure lowering activity in a rabbit model of glaucoma” (Bioorg Med Chem Lett, 2005).

Holding throughout (format): functional
The test system of test [1] is Oryctolagus cuniculus. Kind of test: Tested for the fall of intraocular pressure of glaucomatous rabbits, after treatment with one drop (50 uL) 2% solution at a pH 7.0, directly into the eye after 0 minutes of administration.
Test [2] deals with Oryctolagus cuniculus. The test is described as follows: Tested for the fall of intraocular pressure of glaucomatous rabbits, after treatment with one drop (50 uL) 2% solution at a pH 7.0, directly into the eye after 30 minutes of administration.
Test [3] relates to Oryctolagus cuniculus. The test is described as follows: Tested for the fall of intraocular pressure of glaucomatous rabbits, after treatment with one drop (50 uL) 2% solution at a pH 7.0, directly into the eye after 60 minutes of administration.
The subject of test [4] is Oryctolagus cuniculus. The test is described as follows: Tested for the fall of intraocular pressure of glaucomatous rabbits, after treatment with one drop (50 uL) 2% solution at a pH 7.0, directly into the eye after 90 minutes of administration.
In test [5] the test system is Oryctolagus cuniculus. The test is described as follows: Tested for the fall of intraocular pressure of glaucomatous rabbits, after treatment with one drop (50 uL) 2% solution at a pH 6.5, directly into the eye after 0 minutes of administration.
For test [6], the system named is Oryctolagus cuniculus. Kind of test: Tested for the fall of intraocular pressure of glaucomatous rabbits, after treatment with one drop (50 uL) 2% solution at a pH 6.5, directly into the eye after 30 minutes of administration.
Test [7] has as its system Oryctolagus cuniculus. The test is described as follows: Tested for the fall of intraocular pressure of glaucomatous rabbits, after treatment with one drop (50 uL) 2% solution at a pH 6.5, directly into the eye after 60 minutes of administration.
Test [8] relates to Oryctolagus cuniculus. Kind of test: Tested for the fall of intraocular pressure of glaucomatous rabbits, after treatment with one drop (50 uL) 2% solution at a pH 6.5, directly into the eye after 90 minutes of administration.

Take `NCC(=O)NC(=S)NCCc1ccc(S(N)(=O)=O)cc1.[Cl-].[Na+]`: the Activity in test [1] was 0 mmHg; in test [2] it was 3 mmHg; in test [3] it was 5.9 mmHg; in test [4] it was 5.5 mmHg.
The like results for `NC(=O)CC(N)C(=O)NC(=S)NCCc1ccc(S(N)(=O)=O)cc1.[Cl-].[Na+]` (stereo unspecified) were, in that order, 0 mmHg, 10 mmHg, 13 mmHg and 15.5 mmHg.
The like results for `NC(Cc1ccccc1)C(=O)NC(=S)NCCc1ccc(S(N)(=O)=O)cc1.[Cl-].[Na+]` (stereo unspecified) were, in that order, 0 mmHg, 4 mmHg, 6.1 mmHg and 6.4 mmHg.
In the case of `Cl.NS(=O)(=O)c1ccc(CC/N=C(\S)NNCCN2CCOCC2)cc1`, the Activity in test [5] was 0 mmHg; in test [6], 6.5 mmHg; in test [7], 6.9 mmHg; in test [8], 5.9 mmHg.
